Assay results: ChEMBL document CHEMBL1128273, “Quantitative structure-activity relationships of the inhibition of Pneumocystis carinii dihydrofolate reductase by 4,6-diamino-1,2-dihydro-2,2-dimethyl-1-(X-phenyl)-s-triazines” (J Med Chem, 1995)

test system: not listed separately; assay: Partition coefficient (logP); type: physicochemical; conditions: octanol/water

SMILES | logP
CC1(C)N=C(N)N=C(N)N1c1ccc(CCCCc2ccc(S(=O)(=O)F)cc2Cl)c(Cl)c1 | 2.42
CN(C)C(=O)c1cccc(COc2ccc(N3C(N)=NC(N)=NC3(C)C)cc2Cl)c1 | -1.84

biological target: T1, Dihydrofolate reductase (Homo sapiens, UniProt P00374); assay: Inhibition of human dihydrofolate reductase (DHFR); conditions: read-out: Log 1/Ki (converted)
T1 sequence (P00374 whole entry): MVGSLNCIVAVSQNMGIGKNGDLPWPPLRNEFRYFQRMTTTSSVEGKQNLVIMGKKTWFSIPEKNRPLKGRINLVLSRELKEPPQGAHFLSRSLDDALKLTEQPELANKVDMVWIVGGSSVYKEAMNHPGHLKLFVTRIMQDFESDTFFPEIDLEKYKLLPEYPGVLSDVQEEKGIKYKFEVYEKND

SMILES | Ki
CC1(C)N=C(N)N=C(N)N1c1cccc(SCc2ccccc2)c1 | 42.7 nM
CC1(C)N=C(N)N=C(N)N1c1cccc(COc2cccc3ccccc23)c1 | 135 nM

test system: not listed separately; assay: Selectivity index as the ratio of Ki value towards Human DHFR to that of Pneumocystis carinii DHFR.; conditions: not given

SMILES | Selectivity index
CC1(C)N=C(N)N=C(N)N1c1cccc(OCC23CC4CC(CC(C4)C2)C3)c1 | 1.66
CC1(C)N=C(N)N=C(N)N1c1cccc(SCc2ccccc2)c1 | 1.18
CC1(C)N=C(N)N=C(N)N1c1cccc(COc2cccc3ccccc23)c1 | 1.38
CCOc1cc(Cc2cnc(N)nc2N)cc(OCC)c1-n1cccc1 [EPIROPRIM] | 0.53

biological target: T2, Dihydrofolate reductase (Pneumocystis carinii, UniProt P16184); conditions: not given
T2 sequence (P16184 whole entry): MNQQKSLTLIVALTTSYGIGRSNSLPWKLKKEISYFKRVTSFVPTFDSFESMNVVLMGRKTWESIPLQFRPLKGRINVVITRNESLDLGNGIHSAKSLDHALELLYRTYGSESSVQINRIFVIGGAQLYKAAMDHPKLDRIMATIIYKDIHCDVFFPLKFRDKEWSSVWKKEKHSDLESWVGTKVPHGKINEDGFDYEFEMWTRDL

SMILES | Ki
CCCCCCCCCCCOc1cccc(N2C(N)=NC(N)=NC2(C)C)c1 | 18.6 nM
CC1(C)N=C(N)N=C(N)N1c1cccc(CNc2cc(C(N)=O)cc(C(N)=O)c2)c1 | 15.1 nM
CC1(C)N=C(N)N=C(N)N1c1cccc(OCC23CC4CC(CC(C4)C2)C3)c1 | 17 nM
CC1(C)N=C(N)N=C(N)N1c1cccc(OCc2ccccc2)c1 | 64.6 nM
COc1cccc(OCc2cccc(N3C(N)=NC(N)=NC3(C)C)c2)c1 | 7.76 nM
CCCCCCCc1ccc(N2C(N)=NC(N)=NC2(C)C)cc1 | 6.31 nM
Cc1cccc(OCc2cccc(N3C(N)=NC(N)=NC3(C)C)c2)c1 | 19.5 nM
CCOC(=O)c1cccc(N2C(N)=NC(N)=NC2(C)C)c1 | 2340 nM
CC1(C)N=C(N)N=C(N)N1c1cccc(OCCOc2cccc(C(F)(F)F)c2)c1 | 22.4 nM
CC1(C)N=C(N)N=C(N)N1c1cccc(COc2cccc3ccccc23)c1 | 5.37 nM
CC1(C)N=C(N)N=C(N)N1c1cccc(COc2cccc(CO)c2)c1 | 25.1 nM
CC1(C)N=C(N)N=C(N)N1c1cccc(COc2cccc(Cl)c2)c1 | 12 nM
CC1(C)N=C(N)N=C(N)N1c1cccc(SCc2ccc(Cl)cc2)c1 | 2.63 nM
CCCCCCOc1cccc(N2C(N)=NC(N)=NC2(C)C)c1 | 21.4 nM
CCCCCCCCCCCCCCOc1cccc(N2C(N)=NC(N)=NC2(C)C)c1 | 331 nM
CC1(C)N=C(N)N=C(N)N1c1cccc([N+](=O)[O-])c1 | 132 nM

More lines, now with the values ahead:

Ki | SMILES
17 nM | CCCCCc1ccc(OCc2cccc(N3C(N)=NC(N)=NC3(C)C)c2)cc1
38 nM | CC1(C)N=C(N)N=C(N)N1c1cccc(OCCCCOc2ccccc2)c1
8.32 nM | CC1(C)N=C(N)N=C(N)N1c1cccc(COc2cccc(C#N)c2)c1
7.94 nM | CCCCCCc1ccc(N2C(N)=NC(N)=NC2(C)C)cc1
4.17 nM | CCc1cccc(OCc2cccc(N3C(N)=NC(N)=NC3(C)C)c2)c1
100 nM | CCCCCCOc1ccc(N2C(N)=NC(N)=NC2(C)C)cc1
4.57 nM | CC1(C)N=C(N)N=C(N)N1c1cccc(COc2cccc(NC(N)=O)c2)c1
166 nM | Cc1ccc(N2C(N)=NC(N)=NC2(C)C)cc1
2.82 nM | CC1(C)N=C(N)N=C(N)N1c1cccc(SCc2ccccc2)c1
214 nM | CC(C)(C)c1cccc(N2C(N)=NC(N)=NC2(C)C)c1
1170 nM | CC1(C)N=C(N)N=C(N)N1c1cccc(C(O)c2ccccc2)c1 (stereo not drawn)
3.24 nM | CC(=O)Nc1cccc(OCc2cccc(N3C(N)=NC(N)=NC3(C)C)c2)c1
6.31 nM | CCCCCCCCc1ccc(N2C(N)=NC(N)=NC2(C)C)cc1
15.8 nM | CCCCCCCCCCc1ccc(N2C(N)=NC(N)=NC2(C)C)cc1
6.76 nM | CCCCCCCCCOc1cccc(N2C(N)=NC(N)=NC2(C)C)c1
4.47 nM | CC1(C)N=C(N)N=C(N)N1c1cccc(COc2cccc(-c3ccccc3)c2)c1
257 nM | CCCCCOc1ccc(N2C(N)=NC(N)=NC2(C)C)cc1
2510 nM | CC1(C)N=C(N)N=C(N)N1c1ccc(O)cc1
4.79 nM | CC(C)c1cccc(OCc2cccc(N3C(N)=NC(N)=NC3(C)C)c2)c1
631 nM | CCCCOc1ccc(N2C(N)=NC(N)=NC2(C)C)cc1
132 nM | CC1(C)N=C(N)N=C(N)N1c1ccc(C(F)(F)F)cc1
17.4 nM | CCOc1cc(Cc2cnc(N)nc2N)cc(OCC)c1-n1cccc1 [EPIROPRIM]
6310 nM | CCOc1cccc(N2C(N)=NC(N)=NC2(C)C)c1
251 nM | CSc1ccc(N2C(N)=NC(N)=NC2(C)C)cc1
